This note sets out measurements from US11053230B2, “3-hydroxy-imidazolidin-4-one compounds as inhibitors of indoleamine 2,3-dioxygenase” (Netherlands Translational Research Center B.V., priority 2017, dated 2021).

A word on the IC50: it is the concentration that gives 50% inhibition.

Each structure is given as a SMILES string. Several values for one entry are separate records, joined by “and”; a condition that tells them apart may be missing. Equal entries are not always repeated.

The target of this test is T1, IDO1 (Homo sapiens, UniProt P14902).
T1 construct: Recombinant full-length IDO1 (Seegers, N., et al.) and all other assay components were diluted in IDO1 reaction buffer; made in house
T1 sequence (P14902 whole entry): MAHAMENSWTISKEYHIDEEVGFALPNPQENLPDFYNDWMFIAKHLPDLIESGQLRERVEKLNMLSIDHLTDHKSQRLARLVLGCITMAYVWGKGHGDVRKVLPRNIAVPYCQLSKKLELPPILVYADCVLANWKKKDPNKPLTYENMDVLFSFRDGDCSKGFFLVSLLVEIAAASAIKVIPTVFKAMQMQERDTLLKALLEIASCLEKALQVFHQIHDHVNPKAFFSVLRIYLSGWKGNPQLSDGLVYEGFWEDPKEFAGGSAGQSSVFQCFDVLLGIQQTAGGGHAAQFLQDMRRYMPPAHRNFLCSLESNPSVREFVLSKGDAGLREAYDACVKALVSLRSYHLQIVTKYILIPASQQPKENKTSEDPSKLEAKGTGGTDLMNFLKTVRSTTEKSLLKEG
The experiment in a line: Biochemical IDO1 assay (NFK GreenScreen). The conditions noted are these: NFK GreenScreen; 25 nM IDO1, 100 μM L-tryptophan; read-out: IC50, inhibitory potency on IDO1. The procedure: Inhibition of IDO1 activity can be measured by determining the enzymatic conversion of L-tryptophan into N-formylkynurenine (NFK) in a reaction mixture containing IDO1 and test compound. The formation of NFK can be detected directly by, for instance, high-performance liquid chromatography (HPLC) methods, or by intrinsic fluorescence.
Compounds were serially diluted in dimethylsulfoxide (DMSO) and finally in IDO1 reaction buffer, consisting of 50 mM NaH2PO4, pH7.0, supplemented with 0.05% Tween-20 (cat. No. P7949; Sigma Aldrich) and 1% glycerol. Recombinant full-length IDO1 (Seegers, N., et al.) and all other assay components were diluted in IDO1 reaction buffer. […] Subsequently, 10 μl of 0.4 mM of the substrate L-tryptophan was added, i.e., the final concentration of L-tryptophan was 100 μM. The DMSO concentration in the assay was 0.3%. […] Incubation was continued for 60 min at room temperature. Then, 10 μl of NFK Green™ (NTRC, Oss, The Netherlands) was added, the plate was sealed, and the reaction was developed for 3 hours at 37° C. To determine the production of N-formyl kynurenine (NFK), the seal was removed and fluorescence was read on an EnVision multimode reader (Perkin Elmer, Waltham, Mass., USA). IC50 were calculated using XLfit™ software (ID Business Solutions, Ltd., Surrey, U.K.).
On to `CCc1ccc(C2N(O)C(=O)CN2C(=O)c2c(F)cccc2F)s1` (stereo not shown) [Example 18, 1-(2,6-Difluorobenzoyl)-2-(5-ethyl-2-thienyl)-3-hydroxy-imidazolidin-4-one], for which the IC50 was ≤ 5 µM and 1 to 5 µM.
As to `O=C1CN(C(=O)c2c(F)cccc2F)C(c2csc([N+](=O)[O-])c2)N1O` (stereo not shown) [Example 20, 1-(2,6-Difluorobenzoyl)-3-hydroxy-2-(5-nitro-3-thienyl)imidazolidin-4-one], the IC50 is not above 1 µM.
Turning to `O=C1CN(C(=O)c2c(F)cccc2F)C(c2cc([N+](=O)[O-])cs2)N1O` (stereo not shown) [Example 21, 1-(2,6-Difluorobenzoyl)-3-hydroxy-2-(4-nitro-2-thienyl)imidazolidin-4-one], the IC50 was not above 1 µM.
Next, `O=C1CN(C(=O)c2c(F)cccc2F)C(c2nc(Br)cs2)N1O` (stereo not shown) [Example 22, 2-(4-Bromothiazol-2-yl)-1-(2,6-difluorobenzoyl)-3-hydroxy-imidazolidin-4-one]: ≤ 5 µM and 1 to 5 µM; `O=C1CN(C(=O)c2c(F)cccc2F)C(c2cc(Br)co2)N1O` (stereo not shown) [Example 23, 2-(4-Bromo-2-furyl)-1-(2,6-difluorobenzoyl)-3-hydroxy-imidazolidin-4-one]: ≤ 5 µM and 1 to 5 µM.
Next, `O=C1CN(C(=O)c2c(F)cccc2F)C(c2csc(Br)c2)N1O` (stereo not shown) [Example 28, 2-(5-Bromo-3-thienyl)-1-(2,6-difluorobenzoyl)-3-hydroxy-imidazolidin-4-one]: not above 1 µM.
Next, `N#Cc1csc(C2N(O)C(=O)CN2C(=O)c2c(F)cccc2Cl)c1` (stereo not shown) [Example 29, 5-[1-(2-Chloro-6-fluoro-benzoyl)-3-hydroxy-4-oxo-imidazolidin-2-yl]thiophene-3-carbonitrile]: ≤ 5 µM and 1 to 5 µM; `N#Cc1csc(C2N(O)C(=O)CN2C(=O)c2c(F)cccc2F)c1` (stereo not shown) [Example 30, 5-[1-(2,6-Difluorobenzoyl)-3-hydroxy-4-oxo-imidazolidin-2-yl]thiophene-3-carbonitrile]: ≤ 5 µM and 1 to 5 µM.
Consider `N#Cc1csc(C2N(O)C(=O)CN2C(=O)c2ccccc2F)c1` (stereo not shown) [Example 31, 5-[1-(2-Fluorobenzoyl)-3-hydroxy-4-oxo-imidazolidin-2-yl]thiophene-3-carbonitrile], for which the IC50 is ≤ 5 µM and 1 to 5 µM.
Next, `O=C1CN(C(=O)c2c(F)cccc2F)C(c2cc(Cl)cs2)N1O` (stereo not shown) [Example 33, 2-(4-Chloro-2-thienyl)-1-(2,6-difluorobenzoyl)-3-hydroxy-imidazolidin-4-one]: not above 1 µM; `C#Cc1csc(C2N(O)C(=O)CN2C(=O)c2ccccc2F)c1` (stereo not shown) [Example 35, 2-(4-Ethynyl-2-thienyl)-1-(2-fluorobenzoyl)-3-hydroxy-imidazolidin-4-one]: ≤ 5 µM and 1 to 5 µM; `O=C1CN(C(=O)c2c(F)cccc2F)C(c2cc(I)cs2)N1O` (stereo not shown) [Example 36, 1-(2,6-Difluorobenzoyl)-3-hydroxy-2-(4-iodo-2-thienyl)imidazolidin-4-one]: not above 1 µM.
The figure for `O=C1CN(C(=O)c2c(F)cccc2F)C(c2cc(Br)c(F)s2)N1O` (stereo not shown) [Example 37, 2-(4-Bromo-5-fluoro-2-thienyl)-1-(2,6-difluorobenzoyl)-3-hydroxy-imidazolidin-4-one] is not above 1 µM; for `C#Cc1cc(F)c(C(=O)N2CC(=O)N(O)C2c2cc(Br)cs2)c(F)c1` (stereo not shown) [Example 38, 2-(4-Bromo-2-thienyl)-1-(4-ethynyl-2,6-difluoro-benzoyl)-3-hydroxy-imidazolidin-4-one] it is not above 1 µM.
The figure for `O=C1CN(C(=O)c2c(F)cc(C#CC3CC3)cc2F)C(c2cc(Br)cs2)N1O` (stereo not shown) [Example 39, 2-(4-Bromo-2-thienyl)-1-[4-(2-cyclopropylethynyl)-2,6-difluoro-benzoyl]-3-hydroxy-imidazolidin-4-one] is not above 1 µM.
With `CS(=O)(=O)NCC#Cc1cc(F)c(C(=O)N2CC(=O)N(O)C2c2cc(Br)cs2)c(F)c1` (stereo not shown) [Example 40, N-[3-[4-[2-(4-bromo-2-thienyl)-3-hydroxy-4-oxo-imidazolidine-1-carbonyl]-3,5-difluoro-phenyl]-prop-2-ynyl]methanesulfonamide], the IC50 is not above 1 µM.
The figure for `O=C1CN(Cc2ccccc2F)C(c2ccc(Br)s2)N1O` (stereo not shown) [Example 41, 2-(5-Bromo-2-thienyl)-1-[(2-fluorophenyl)methyl]-3-hydroxy-imidazolidin-4-one] is not above 1 µM; for `O=C1CN(Cc2ccccc2F)C(c2csc(Br)c2)N1O` (stereo not shown) [Example 42, 2-(5-Bromo-3-thienyl)-1-[(2-fluorophenyl)methyl]-3-hydroxy-imidazolidin-4-one] it is not above 1 µM; for `O=C1CN(Cc2ccccc2F)C(c2cc(Br)cs2)N1O` (stereo not shown) [Example 43, 2-(4-Bromo-2-thienyl)-1-[(2-fluorophenyl)methyl]-3-hydroxy-imidazolidin-4-one] it is not above 1 µM.
The figure for `O=C1CN(Cc2c(F)cccc2F)C(c2cc(Br)cs2)N1O` (stereo not shown) [Example 44, 2-(4-Bromo-2-thienyl)-1-[(2,6-difluorophenyl)methyl]-3-hydroxy-imidazolidin-4-one] is not above 1 µM.
For `CC(C)C#Cc1cc(F)c(C(=O)N2CC(=O)N(O)C2c2cc(Br)cs2)c(F)c1` (stereo not shown) [Example 50, 2-(4-Bromo-2-thienyl)-1-[2,6-difluoro-4-(3-methylbut-1-ynyl)benzoyl]-3-hydroxy-imidazolidin-4-one], the IC50 is not above 1 µM.
Next, `COc1cc(F)c(C(=O)N2CC(=O)N(O)C2c2cc(Br)cs2)c(F)c1` (stereo not shown) [Example 51, 2-(4-Bromo-2-thienyl)-1-(2,6-difluoro-4-methoxy-benzoyl)-3-hydroxy-imidazolidin-4-one]: not above 1 µM; `O=C1CN(C(=O)c2c(F)cc(Br)cc2F)C(c2cc(Br)cs2)N1O` (stereo not shown) [Example 52, 1-(4-Bromo-2,6-difluoro-benzoyl)-2-(4-bromo-2-thienyl)-3-hydroxy-imidazolidin-4-one]: not above 1 µM.
The figure for `O=C1CN(C(=O)c2ccc(Cc3ccccc3)cc2)C(c2cc(Br)cs2)N1O` (stereo not shown) [Example 53, 1-(4-Benzylbenzoyl)-2-(4-bromo-2-thienyl)-3-hydroxy-imidazolidin-4-one] is ≤ 5 µM and 1 to 5 µM; for `O=C1CN(C(=O)c2ccc(Oc3ccccc3)cc2)C(c2cc(Br)cs2)N1O` (stereo not shown) [Example 54, 2-(4-Bromo-2-thienyl)-3-hydroxy-1-(4-phenoxybenzoyl)imidazolidin-4-one] it is ≤ 5 µM and 1 to 5 µM.
The figure for `O=C1CN(C(=O)c2ccccc2Cl)C(c2cc(Br)cs2)N1O` (stereo not shown) [Example 55, 2-(4-Bromo-2-thienyl)-1-(2-chlorobenzoyl)-3-hydroxy-imidazolidin-4-one] is not above 1 µM.
As for `O=C1CN(C(=O)c2ccccc2C(F)(F)F)C(c2cc(Br)cs2)N1O` (stereo not shown) [Example 56, 2-(4-Bromo-2-thienyl)-3-hydroxy-1-[2-(trifluoromethyl)benzoyl]imidazolidin-4-one], the IC50 was ≤ 5 µM and 1 to 5 µM.
The figure for `O=C1CN(C(=O)c2c(F)c(F)c(F)c(F)c2F)C(c2cc(Br)cs2)N1O` (stereo not shown) [Example 63, 2-(4-Bromo-2-thienyl)-3-hydroxy-1-(2,3,4,5,6-pentafluorobenzoyl)imidazolidin-4-one] is not above 1 µM; for `O=C1CN(C(=O)c2ccc(C(F)(F)F)cc2F)C(c2cc(Br)cs2)N1O` (stereo not shown) [Example 64, 2-(4-Bromo-2-thienyl)-1-[2-fluoro-4-(trifluoromethyl)benzoyl]-3-hydroxy-imidazolidin-4-one] it is ≤ 5 µM and 1 to 5 µM; for `Cc1cccc(F)c1C(=O)N1CC(=O)N(O)C1c1cc(Br)cs1` (stereo not shown) [Example 65, 2-(4-Bromo-2-thienyl)-1-(2-fluoro-6-methyl-benzoyl)-3-hydroxy-imidazolidin-4-one] it is not above 1 µM.
The figure for `O=C1CN(C(=O)c2cccnc2Cl)C(c2cc(Br)cs2)N1O` (stereo not shown) [Example 66, 2-(4-Bromo-2-thienyl)-1-(2-chloropyridine-3-carbonyl)-3-hydroxy-imidazolidin-4-one] is not above 1 µM.
The figure for `O=C1CN(C(=O)C2CCCCC2)C(c2cc(Br)cs2)N1O` (stereo not shown) [Example 67, 2-(4-Bromo-2-thienyl)-1-(cyclohexanecarbonyl)-3-hydroxy-imidazolidin-4-one] is ≤ 5 µM and 1 to 5 µM.
As for `O=C1CN(C(=O)c2ccc(Cl)cc2Cl)C(c2cc(Br)cs2)N1O` (stereo not shown) [Example 68, 2-(4-Bromo-2-thienyl)-1-(2,4-dichlorobenzoyl)-3-hydroxy-imidazolidin-4-one], the IC50 is ≤ 5 µM and 1 to 5 µM.
As to `O=C1CN(C(=O)c2cccc(Cl)c2Cl)C(c2cc(Br)cs2)N1O` (stereo not shown) [Example 69, 2-(4-Bromo-2-thienyl)-1-(2,3-dichlorobenzoyl)-3-hydroxy-imidazolidin-4-one], the IC50 is not above 1 µM.
The figure for `CS(=O)(=O)c1ccc(-c2ccc(C(=O)N3CC(=O)N(O)C3c3cc(Br)cs3)cc2)cc1` (stereo not shown) [Example 71, 2-(4-Bromo-2-thienyl)-3-hydroxy-1-[4-(4-methylsulfonylphenyl)benzoyl]imidazolidin-4-one] is ≤ 5 µM and 1 to 5 µM.
The figure for `O=C1CN(C(=O)c2ccncc2F)C(c2cc(Br)cs2)N1O` (stereo not shown) [Example 73, 2-(4-Bromo-2-thienyl)-1-(3-fluoropyridine-4-carbonyl)-3-hydroxy-imidazolidin-4-one] is not above 1 µM; for `O=C1CN(C(=O)c2c(F)ccc(Br)c2F)C(c2cc(Br)cs2)N1O` (stereo not shown) [Example 74, 1-(3-Bromo-2,6-difluoro-benzoyl)-2-(4-bromo-2-thienyl)-3-hydroxy-imidazolidin-4-one] it is not above 1 µM.
